d = 2'-deoxy (DNA); r = 2'-OH (RNA)
Columns and labels:
[1] = system: SKOV3 cells; assay: Cytotoxicity assay (MTT), SKOV3; format: cell-based, human
Protocol: (§1) The medium was exchanged after 48 hours with increasing concentrations of docetaxel (obtained from Aventis Pharma, Bridgewater, N.J.) dissolved in ethanol (final concentration range, 0.1-10,000 nmol/L prepared in medium) or cisplatin (purchased from LKT Laboratories, Inc., St. Paul, Minn.) dissolved in water. After a 96-hour incubation, 50 μL of 0.15% 3-(4,5-dimethylthiazol-2-yl)-2,5-diphenyltetrazolium bromide was added to each well and incubated for 2 hours. The supernatant was removed, and cells were dissolved in 100 μL DMSO. The absorbance at 570 nm was recorded using a FALCON microplate reader (Becton Dickinson Labware, Bedford, Mass.), and cell survival expressed as a percent increase or decrease above control conditions, after subtracting blank A570 readings. The IC50 concentration was determined by finding the A570 reading midpoint between maximal and minimal readings and finding the chemotherapy concentration that intersects the growth curve at that A570 reading.

[2] = system: HeyA8 cells; assay: Cytotoxicity assay (MTT), HeyA8; format: cell-based, human; details: HeyA8; siRNA 48 hours before docetaxel; at 50% cytotoxicity
Protocol: as §1

[3] = system: SKOV3-TR cells; assay: Cytotoxicity assay (MTT), SKOV3-TR; format: cell-based, human; details: SKOV3-TR; siRNA 48 hours before docetaxel
Protocol: as §1

[4] = system: HeyA8-MDR cells; assay: Cytotoxicity assay (MTT), HeyA8-MDR; format: cell-based, human; details: HeyA8-MDR; siRNA 48 hours before docetaxel
Protocol: as §1

[5] = system: SKOV3-TR and HeyA8-MDR cells; assay: TUNEL apoptosis assay, taxane-resistant cells; format: cell-based, human; details: FAK siRNA with or without docetaxel
Protocol: (§2) Terminal deoxynucleotidyl transferase-mediated nick end labeling-positive cells were detected using Dead End Fluorometric terminal deoxynucleotidyl transferase-mediated nick end labeling system (APO-DIRECT, BD Biosciences/PharMingen, San Diego, Calif.) according to the manufacturer's instructions. Briefly, ovarian cancer cells in culture were treated with varying concentrations of docetaxel and harvested after 12, 24, 48, or 96 hours. Cells were fixed with 4% paraformaldehyde solution for 25 minutes on ice. Intracellular DNA fragments were then labeled by exposing cells to fluorescein-12-dUTP, treated with propidium iodide and RNaseA solution, and analyzed by flow cytometry (EPICS XL, Beckman Coulter, Miami, Fla.). The percentages of apoptotic cells were averaged over three consecutive experiments.

[6] = system: Murine FAK; assay: FAK siRNA treatment of murine endothelial cells; format: cell-based, mouse; details: murine endothelial cells from the ovary of ImmortoMice
From the text: To determine potential mechanisms underlying the efficacy of anti-FAK based therapy, its effects on several biological endpoints were examined, including angiogenesis (MVD), proliferation (PCNA), and apoptosis (TUNEL). Due to growing evidence related to FAK and tumor angiogenesis (Kornberg et al., 2004; Mitra et al., 2005). The inventors evaluated vessel density (FIG. 14B) in the tumors harvested from the studies described above. […] To determine if FAK siRNA mediated in vivo effects on endothelial cells were direct, the inventors treated murine endothelial cells isolated from the ovary of ImmortoMice (H-2k(b)-ts A58) (Langley et al., 2003) with FAK siRNA. Murine FAK levels were not altered by the FAK siRNA used for the in vivo studies (data not shown).

[7] = system: SKOV3 cells; assay: TUNEL apoptosis assay, SKOV3; format: cell-based, human; details: sensitive and resistant cell lines
Protocol: as §2, with “Briefly, ovarian cancer cells in culture were treated with varying concentrations of docetaxel and harvested after 12, 24, 48, or 96 hours.” left out

[8] = system: HeyA8 cells; assay: Chronic restraint stress, HeyA8 orthotopic tumor growth; format: in vivo, nude mice; details: siRNA in DOPC three times per week
From the text: Mice habituated to vivarium conditions for 1 week before the initiation of stress procedures. A restraint-stress procedure was used based on previous studies (Sheridan et al., 1991), substituting a novel Mouse Restraint System (FIG. 15A) for conical centrifuge tubes. In this system, up to 10 mice are placed in individual slots, and each slot can be adjusted to restrain the animal for a desired length of time. In the present study, restraint stress began between 8 a.m. and 10 a.m., and lasted for 2-6 hours for up to 21 days. […] Immunohistochemistry and H&E staining procedures were carried out on formalin-fixed paraffin-embedded tumors. […] Pumps were inserted on the nape of the neck 7 days prior to initiation of restraint stress for 2 hours daily. Mice were anesthetized with inhaled methoxyflurane (Medical Developments Australia Pty. Ltd, Melbourne, Australia), and implanted with Alzet pumps containing PBS or S-propranolol hydrochloride (Sigma Co., St. Louis, Mo.) diluted in PBS at a dose of 2 mg/kg/day, which allows for chronic continuous receptor blockade, for 28 days (Aarons and Molinoff, 1982; Exton et al., 2002).

Row | Substance | fold greater docetaxel cytotoxicity after FAK down-regulation ([1]; SKOV3, siRNA 48 hours before docetaxel, at 50% cytotoxicity) | fold greater docetaxel cytotoxicity after FAK down-regulation [2] | fold increase in sensitivity to docetaxel [3] | fold increase in sensitivity to docetaxel [4] | apoptosis [5] | Murine FAK levels [6] | effect on sensitivity to docetaxel ([1]; all ovarian cancer cell lines tested) | apoptosis in combination with docetaxel [7] | effect on stress induced increase in tumor weight, nodules and metastasis [8]
1 | FAK siRNA: sense r(CCACCUGGGCCAGUAUUAU)d(TT), antisense r(AUAAUACUGGCCCAGGUGG)d(TT); for in vivo delivery incorporated into DOPC (sense CCACCUGGGCCAGUAUUAUTT; antisense AUAAUACUGGCCCAGGUGGTT; sugars from the 5' end r19 d2, backbone not given here) | ~5 fold | 8 fold | 4.8 fold | 5.5 fold | neither agent alone induced much apoptosis | not altered |  |  | 
2 | control siRNA: sense r(UUUUCCGAACGUGUCACGU)dTT, antisense r(ACGUGACACGUUCGGAGAA)dTT, no homology with human mRNA; in vivo in DOPC (sense UUUUCCGAACGUGUCACGUTT; antisense ACGUGACACGUUCGGAGAATT; sugars from the 5' end r19 d2, backbone not given here) |  |  |  |  |  |  | did not affect sensitivity of ovarian cancer cells to docetaxel | did not enhance apoptosis in combination with docetaxel | failed to block stress-induced enhancement of tumor weight and nodules
